{"source": "patent US20140296146A1", "about": "“Thermostable Inhibitors of Activation of the Blood Clotting System Through Contact with Foreign Surfaces” (Synapse B.V., priority 2011, published 2014)", "key": {"[1]": {"system": "contact activation", "experiment": "CAT assay at 0 pM TF on PPP from blood collection tubes with TICA added to tube or to assay", "type": "biochemical, human", "method": "In 12 donors blood was drawn with 7 different drawing tubes with and without addition of TICA1 in the drawing tubes (total 14 tubes; 78 ml). After preparing PPP from these tubes, CAT measurements with MP reagent and pplow reagent was performed. One donor is measured in one plate. (pplow duplicate; MP duplicate; calibrator in 4 fold. Total volume is 320 μl sample/measurement in total 88 wells/donor.\nIn 12 donors blood is taken with the following commercial available drawing tubes: (From all blooddrawing tubes one tube with and one tube without TICA will be used to draw blood)\nFinal TICA concentration after blood drawing in every tube with added TICA is 30 μg/ml whole blood.\nFinal TICA concentration in plasma after preparing PPP is 60 μg/ml (assuming an hematocit of 50%)\nCAT measurements with MP reagent and pplow reagent will be performed. One donor is measured in one plate. PPLow duplicate; MP duplicate; calibrator in 4 fold.\nTotal volume is 320 μl sample/measurement in total 88 wells/donor. NP2012 is also included in the measurement in 4 fold.\nLag times, Endogenous thrombin potentials, and peak height were recorded, For the current conditions of thrombin generation, peak height is the preferred parameter for interpretation of the results.\nPlasma with TICA added: concentration in plasma: 60 μg/ml\nStock TICA: 1.5 mg/ml=>1500 μg/ml\n20 μl TICA (stock: 1500 μg/ml) is added to 480 μl plasma."}, "[2]": {"molecular_target": "T1, h-FXIIa (Homo sapiens, UniProt P00748)", "T1 construct": "purchased Enzyme Research Laboratories FXIIa 1212A", "T1 sequence (P00748 373-615 limits assumed)": "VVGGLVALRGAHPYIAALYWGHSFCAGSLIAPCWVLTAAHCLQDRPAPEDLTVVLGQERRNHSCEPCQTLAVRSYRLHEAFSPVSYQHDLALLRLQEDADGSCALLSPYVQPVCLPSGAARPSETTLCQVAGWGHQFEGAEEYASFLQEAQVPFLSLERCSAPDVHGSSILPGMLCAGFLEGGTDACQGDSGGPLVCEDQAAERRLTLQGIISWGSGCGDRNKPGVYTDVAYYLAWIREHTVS", "T1 sequence (P00748 20-372 partner limits assumed)": "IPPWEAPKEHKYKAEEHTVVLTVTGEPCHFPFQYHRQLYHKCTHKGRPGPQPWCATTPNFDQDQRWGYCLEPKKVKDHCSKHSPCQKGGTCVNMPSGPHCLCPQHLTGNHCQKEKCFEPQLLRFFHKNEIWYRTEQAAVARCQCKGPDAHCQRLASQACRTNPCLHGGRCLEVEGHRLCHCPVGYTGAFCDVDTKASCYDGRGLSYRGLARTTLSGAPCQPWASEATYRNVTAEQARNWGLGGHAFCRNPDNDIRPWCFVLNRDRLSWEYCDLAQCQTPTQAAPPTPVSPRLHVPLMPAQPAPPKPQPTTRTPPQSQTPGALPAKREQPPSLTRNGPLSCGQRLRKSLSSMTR", "experiment": "Effect of inhibitors on hydrolysis of S2302 by h-FXIIa", "type": "biochemical"}, "[3]": {"experiment": "TICA1: dependence of activity on disulfides (FIG. 5)", "details": "relative to TICA1 with 3 disulfides = 100%", "excerpt": "FIG. 5: Thermostable Inhibitor of Coagulation Activation (TICA1): Dependence on Disulfides."}, "[4]": {"details": "TICA added to CAT assay, 60 μg/ml in plasma"}, "[5]": {"details": "TICA added to Tube, 30 μg/ml whole blood"}}, "data": [{"smiles": "CC[C@H](C)[C@@H]1NC(=O)[C@H](CCCNC(=N)N)NC(=O)[C@@H]2CCCN2C(=O)[C@@H](NC(=O)[C@@H](NC(=O)[C@@H](N)CCCNC(=N)N)C(C)C)CSSC[C@@H]2NC(=O)[C@H](CCC(=O)O)NC(=O)[C@H](C)NC(=O)[C@H](CC(C)C)NC(=O)[C@@H]3CSSC[C@@H](C(=O)NCC(=O)O)NC(=O)[C@H](Cc4ccc(O)cc4)NC(=O)CNC(=O)[C@H](Cc4c[nH]cn4)NC(=O)[C@H](CCC(=O)O)NC(=O)[C@H](CC(C)C)NC(=O)[C@H](CSSC[C@H](NC(=O)[C@H](CCCCN)NC(=O)[C@H](CCSC)NC(=O)[C@H](CC(C)C)NC1=O)C(=O)N[C@@H](CCCCN)C(=O)N[C@@H](CCCCN)C(=O)N[C@@H](CC(=O)O)C(=O)N[C@@H](CO)C(=O)N[C@@H](CC(=O)O)C(=O)N3)NC(=O)[C@H](C(C)C)NC2=O", "note": "[TICA1]", "values": [{"measurement": "BD Glass 0 pM TF ETP (nM IIa · min)", "setting": "[1]; [4]", "value": "760 ± 526", "unit": "nM IIa · min"}, {"measurement": "BD Glass 0 pM TF Lagtime (min)", "setting": "[1]; [4]", "value": "38.8 ± 34.8", "unit": "min"}, {"measurement": "BD Glass 0 pM TF Peak Height (nM IIa)", "setting": "[1]; [4]", "value": "105 ± 81", "unit": "nM IIa"}, {"measurement": "BD Plastic 0 pM TF ETP (nM IIa · min)", "setting": "[1]; [4]", "value": "614 ± 538", "unit": "nM IIa · min"}, {"measurement": "BD Plastic 0 pM TF Lagtime (min)", "setting": "[1]; [4]", "value": "49.5 ± 37.7", "unit": "min"}, {"measurement": "BD Plastic 0 pM TF Peak Height (nM IIa)", "setting": "[1]; [4]", "value": "86 ± 87", "unit": "nM IIa"}, {"measurement": "Greiner 0 pM TF ETP (nM IIa · min)", "setting": "[1]; [4]", "value": "834 ± 449", "unit": "nM IIa · min"}, {"measurement": "Greiner 0 pM TF Lagtime (min)", "setting": "[1]; [4]", "value": "31.2 ± 26.7", "unit": "min"}, {"measurement": "Greiner 0 pM TF Peak Height (nM IIa)", "setting": "[1]; [4]", "value": "110 ± 70", "unit": "nM IIa"}, {"measurement": "Heamtech 0 pM TF ETP (nM IIa · min)", "setting": "[1]; [4]", "value": "666 ± 552", "unit": "nM IIa · min"}, {"measurement": "Heamtech 0 pM TF Lagtime (min)", "setting": "[1]; [4]", "value": "46.4 ± 39.7", "unit": "min"}, {"measurement": "Heamtech 0 pM TF Peak Height (nM IIa)", "setting": "[1]; [4]", "value": "93 ± 85", "unit": "nM IIa"}, {"measurement": "Sarstedt 0 pM TF ETP (nM IIa · min)", "setting": "[1]; [4]", "value": "279 ± 227", "unit": "nM IIa · min"}, {"measurement": "Sarstedt 0 pM TF Lagtime (min)", "setting": "[1]; [4]", "value": "50.0 ± 38.0", "unit": "min"}, {"measurement": "Sarstedt 0 pM TF Peak Height (nM IIa)", "setting": "[1]; [4]", "value": "26 ± 23", "unit": "nM IIa"}, {"measurement": "Terumo 0 pM TF ETP (nM IIa · min)", "setting": "[1]; [4]", "value": "276 ± 367", "unit": "nM IIa · min"}, {"measurement": "Terumo 0 pM TF Lagtime (min)", "setting": "[1]; [4]", "value": "64 ± 40.6", "unit": "min"}, {"measurement": "Terumo 0 pM TF Peak Height (nM IIa)", "setting": "[1]; [4]", "value": "33 ± 50", "unit": "nM IIa"}, {"measurement": "BD Glass 0 pM TF ETP (nM IIa · min)", "setting": "[1]; [5]", "value": "77 ± 119", "unit": "nM IIa · min"}, {"measurement": "BD Glass 0 pM TF Lagtime (min)", "setting": "[1]; [5]", "value": "76.6 ± 34.0", "unit": "min"}, {"measurement": "BD Glass 0 pM TF Peak Height (nM IIa)", "setting": "[1]; [5]", "value": "6 ± 9", "unit": "nM IIa"}, {"measurement": "BD Plastic 0 pM TF ETP (nM IIa · min)", "setting": "[1]; [5]", "value": "20 ± 61", "unit": "nM IIa · min"}, {"measurement": "BD Plastic 0 pM TF Lagtime (min)", "setting": "[1]; [5]", "value": "90.1 ± 26.8", "unit": "min"}, {"measurement": "BD Plastic 0 pM TF Peak Height (nM IIa)", "setting": "[1]; [5]", "value": "2 ± 6", "unit": "nM IIa"}, {"measurement": "Greiner 0 pM TF ETP (nM IIa · min)", "setting": "[1]; [5]", "value": "144 ± 164", "unit": "nM IIa · min"}, {"measurement": "Greiner 0 pM TF Lagtime (min)", "setting": "[1]; [5]", "value": "65.0 ± 34.8", "unit": "min"}, {"measurement": "Greiner 0 pM TF Peak Height (nM IIa)", "setting": "[1]; [5]", "value": "11 ± 13", "unit": "nM IIa"}, {"measurement": "Heamtech 0 pM TF ETP (nM IIa · min)", "setting": "[1]; [5]", "value": "289 ± 420", "unit": "nM IIa · min"}, {"measurement": "Heamtech 0 pM TF Lagtime (min)", "setting": "[1]; [5]", "value": "65.0 ± 34.8", "unit": "min"}, {"measurement": "Heamtech 0 pM TF Peak Height (nM IIa)", "setting": "[1]; [5]", "value": "36 ± 62", "unit": "nM IIa"}, {"measurement": "Sarstedt 0 pM TF ETP (nM IIa · min)", "setting": "[1]; [5]", "value": "140 ± 106", "unit": "nM IIa · min"}, {"measurement": "Sarstedt 0 pM TF Lagtime (min)", "setting": "[1]; [5]", "value": "52.5 ± 36.2", "unit": "min"}, {"measurement": "Sarstedt 0 pM TF Peak Height (nM IIa)", "setting": "[1]; [5]", "value": "10 ± 8", "unit": "nM IIa"}, {"measurement": "Terumo 0 pM TF ETP (nM IIa · min)", "setting": "[1]; [5]", "value": "59 ± 119", "unit": "nM IIa · min"}, {"measurement": "Terumo 0 pM TF Lagtime (min)", "setting": "[1]; [5]", "value": "75.7 ± 35.6", "unit": "min"}, {"measurement": "Terumo 0 pM TF Peak Height (nM IIa)", "setting": "[1]; [5]", "value": "5 ± 11", "unit": "nM IIa"}, {"measurement": "Ki", "setting": "[2]; Ki, Table 2, inhibitory activity of different polypeptides", "value": 25.5, "unit": "nM"}, {"measurement": "Ki", "setting": "[2]; ki F.XIIa (ng/ml), After heating", "value": 26, "unit": "nM"}, {"measurement": "Ki", "setting": "[2]; ki F.XIIa (ng/ml), Before heating", "value": 25.4, "unit": "nM"}, {"measurement": "activity", "setting": "[3]", "value": 100, "unit": "%"}]}]}
